Values quoted from earlier work in US20140228287A1, “1-[(3-CYANO-PYRIDIN-2-YL)METHYL]-3-METHYL-7-(2-BUTYN-1-YL)-8-[3-(R)-AMINO-PIPERIDIN-1-YL]-AXANTHINE FOR THE TREATMENT OF A METABOLIC DISORDER OF A PREDOMINANTLY CARNIVOROUS NON-HUMAN ANIMAL” (BOEHRINGER INGELHEIM VETMEDICA GMBH, priority 2010, published 2014).

What was measured:
GLP-1 = settings: after administration to rats and to cats; cited from earlier work
plasma glucagon = settings: in vivo; cited from earlier work

Compound: CC#CCn1c(N2CCC[C@@H](N)C2)nc2c1c(=O)n(Cc1nc(C)cc3ccccc13)c(=O)n2C [1-[(3-Methyl-isochinoline-1-yl)methyl]-3-methyl-7-(2-butin-1-yl)-8-((R)-3-amino-piperidine-1-yl)-xanthine]
- effect of GLP-1 (GLP-1): the effect of GLP-1 could be prolonged

Compound: N#Cc1ccc(NCCNCC(=O)N2CCC[C@H]2C#N)nc1 [NVP-DPP728]
- plasma glucagon concentration in cats (plasma glucagon): reduce the plasma glucagon concentration
